Data: patent US6346543B1, “Use of a taxoid to treat abnormal cell proliferation in the brain” (priority 1998, dated 2002)
Values joined by “and” are separate entries in the source; they are usually repeats but may differ in a detail not shown here. Equal entries are not always repeated.

Key:
[1] = tested on: intracranially implanted human glioblastoma SF-295; assay: Antitumor activity against intracranially implanted SF-295 glioblastoma in NCr-nu mice (RP-38); format: in vivo; details: for DAYS OF DEATH: individual animals
Excerpt: Four studies were initiated to evaluate the response of U251 and SF-295 glioblastomas to treatment with product (Ia). In the two studies, U251 and SF-295 glioblastomas were initiated from intracranially implanted cells at a volume of 10^6 cells per mouse. The treatment schedule of the intracranially implanted U251 glioblastoma cells was iv, once daily, every sixth day for three treatments (q6d×3), beginning on day four post-implant. The treatment schedule of the intracranially implanted SF-295 glioblastoma cells was iv, once daily, every fourth day for three treatments (q4d×3), beginning on day two post-implant. For the intracranially implanted studies, the compounds were evaluated based on their ability to increase the life span of the animals. The positive control used for both of these tumor models was nitrosourea.
In these experiments, general DCTD, NCI techniques and procedures for in vivo efficacy studies were modified for special application (In Vivo Cancer Models, NIH Publication No. 84-2635, 1984). These studies were conducted in approved facilities (AAALAC Registration No. 000643, AALAS Membership No. 840723001, USDA Registration No. 64-R-001, OPPR, PHS, NIH, AWA, Assurance No. A3046-01). These facilities are ISO 9001 certified. The oversight committee was the Southern Research Institutional Animal Care and Use Committee; the protocol used was IACUC No. 96-8-50.
(§1) Product (Ia) was prepared in 5% ethanol, 5% tween 80, 90% D5W
Nitrosourea was prepared in 2% ethanol, 98% physiological saline.
(§2) Product (Ia) was administered in 0.4 ml/mouse based on a total body weight average.
(§3) Nitrosourea was administered 0.1 ml/10 g of body weight.
(§4) Any intracranially implanted animal that appeared to be moribund was euthanized for humane purposes. Since efficacy studies fall within this category of basic research, experiment termination was based on resultants that were determined to be optimal.
Six to eight week old athymic NCr-nu female mice were used for the intracranially implanted U251 trials. Six to eight week old athymic NCr-nu male mice were used for the intracranially implanted SF-295 trials.
As previously mentioned, this experiment was designed to evaluate the activity of product (Ia) against intracranially U251 and SF-295 glioblastomas in athymic MCr-nu mice. The dosages for product (Ia) were 30, 20 and 13.4 mg/kg/dose. For the two intracranially implanted experiments, cells were prepared at a concentration of 3.33×10^7 cells per ml of media and injected at a volume of 0.03 ml per mouse. The cells were injected into the cerebrum to the right of the midline with a 25 gauge, ⅜ inch, stainless steel needle. Cultured cells were used for the U251 experiment (RP-36). The treatment schedule was q6d×3, iv, beginning on day four, post-implant. A tumor brei, made from solid tumor, was used for the SF-295 experiment (RP-38). The treatment schedule was q4d×3, iv, beginning on day two, post-implant. Nitrosourea was given in each experiment for comparative purposes because of its known activity against CNS tumors. The dosages were 27, 18 and 12 mg/kg/dose and the treatment schedule was the same as the treatment schedule for product (Ia) in each experiment.

[2] = tested on: intracranially implanted human glioblastoma U251; assay: Antitumor activity against intracranially implanted U251 glioblastoma in NCr-nu mice (RP-36); format: in vivo; details: for DAYS OF DEATH: individual animals
Method: The treatment schedule of the intracranially implanted U251 glioblastoma cells was iv, once daily, every sixth day for three treatments (q6d×3), beginning on day four post-implant. […] For the intracranially implanted studies, the compounds were evaluated based on their ability to increase the life span of the animals. The positive control used for both of these tumor models was nitrosourea.
The oversight committee was the Southern Research Institutional Animal Care and Use Committee; the protocol used was IACUC No. 96-8-50.
as §1, §2, §3, §4
Six to eight week old athymic NCr-nu female mice were used for the intracranially implanted U251 trials.
The cells were injected into the cerebrum to the right of the midline with a 25 gauge, ⅜ inch, stainless steel needle. Cultured cells were used for the U251 experiment (RP-36). The treatment schedule was q6d×3, iv, beginning on day four, post-implant. […] The treatment schedule was q4d×3, iv, beginning on day two, post-implant. Nitrosourea was given in each experiment for comparative purposes because of its known activity against CNS tumors.

[3] = 18.0 mg/kg/dose IV Q4D×3(2), listed as nitrosourea
[4] = 27.0 mg/kg/dose IV Q4D×3(2), listed as nitrosourea
[5] = 18.0 mg/kg/dose IV Q6D×3(4), listed as nitrosourea

In the case of `NC(=O)NN=O` [Nitrosourea, reference compound], the “68 DAY SURV./TOTAL” value ([1]; 12.0 mg/kg/dose IV Q4D×3(2)) is reported as 0/10, the “% ILS” value ([1]; 12.0 mg/kg/dose IV Q4D×3(2)) is reported as “+106%” and the “MEDIAN DAY OF DEATH” value ([1]; 12.0 mg/kg/dose IV Q4D×3(2)) is reported as 33.0 days. For the same molecule, the “DAYS OF DEATH” value ([1]; 12.0 mg/kg/dose IV Q4D×3(2)) was 33 day (5×) and 40 day and 22 day and 23 day and 26 day (2×), the “% ILS” value ([1]; 12.0 mg/kg/dose IV Q4D×3(2), listed as nitrosourea) was 106% and the “68 DAY SURV./TOTAL” value ([1]; 18.0 mg/kg/dose IV Q4D×3(2)) was 1/10. For the same molecule, the “% ILS” value ([1]; 18.0 mg/kg/dose IV Q4D×3(2)) was “+131%”, the “MEDIAN DAY OF DEATH” value ([1]; 18.0 mg/kg/dose IV Q4D×3(2)) was 37.0 days and the “DAYS OF DEATH” value ([1]; 18.0 mg/kg/dose IV Q4D×3(2)) was 40 day and 41 day and 33 day and 34 day (2×) and 35 day and 37 day (3×). For the same molecule, the “68 DAY SURV./TOTAL” value [1, 3] was “one 68-day survivor out of ten animals”, the “% ILS” value [1, 3] was 131% and the “68 DAY SURV./TOTAL” value ([1]; 27.0 mg/kg/dose IV Q4D×3(2)) was 2/10. The “% ILS” value ([1]; 27.0 mg/kg/dose IV Q4D×3(2)) was “+50%”, the “MEDIAN DAY OF DEATH” value ([1]; 27.0 mg/kg/dose IV Q4D×3(2)) was 24.0 days and the “DAYS OF DEATH” value ([1]; 27.0 mg/kg/dose IV Q4D×3(2)) was 64 day and 15 day and 16 day (2×) and 19 day and 29 day and 37 day and 56 day. The “68 DAY SURV./TOTAL” value [1, 4] was “two 68-day survivors out of ten animals”, the “% ILS” value [1, 4] was 50% and the MTD ([1]; in vivo, iv) was 27 mg/kg/dose. The “122-DAY SURV./TOTAL” value ([2]; 12.0 mg/kg/dose IV Q6D×3(4)) was 0/10, the “% ILS” value ([2]; 12.0 mg/kg/dose IV Q6D×3(4)) was “+51%” and the “MEDIAN DAY OF DEATH” value ([2]; 12.0 mg/kg/dose IV Q6D×3(4)) was 51.5 days. For the same molecule, the “DAYS OF DEATH” value ([2]; 12.0 mg/kg/dose IV Q6D×3(4)) was 69 day (2×) and 80 day and 41 day and 45 day and 49 day (3×) and 54 day and 66 day, the “% ILS” value ([2]; 12.0 mg/kg/dose IV Q6D×3(4), listed as nitrosourea) was 51% and the “122-DAY SURV./TOTAL” value ([2]; 18.0 mg/kg/dose IV Q6D×3(4)) was 7/10. For the same molecule, the “% ILS” value ([2]; 18.0 mg/kg/dose IV Q6D×3(4)) was “+205%”, the “MEDIAN DAY OF DEATH” value ([2]; 18.0 mg/kg/dose IV Q6D×3(4)) was 104.0 days and the “DAYS OF DEATH” value ([2]; 18.0 mg/kg/dose IV Q6D×3(4)) was 94 day and 104 day (2×). For the same molecule, the “122-DAY SURV./TOTAL” value [2, 5] was “seven of ten”, the “% ILS” value [2, 5] was 205% and the “122-DAY SURV./TOTAL” value ([2]; 27.0 mg/kg/dose IV Q6D×3(4)) was 10/10. For the same molecule, the “122-DAY SURV./TOTAL” value ([2]; 27.0 mg/kg/dose IV Q6D×3(4), listed as nitrosourea) was “ten of ten” and the MTD ([2]; iv q6d×3, U251 experiment RP-36) was 27 mg/kg/dose.
